Test results taken from US20120141467A1, “Ascorbic acid to treat chronic obstructive lung diseases and non-Hodgkin's lymphoma” (priority 2010, published 2012).

Tested on: upper respiratory mucosa
Experiment: Safety tests of topical ascorbate (spray, lozenge) on upper respiratory mucosa
Conditions: Three ml oral/nasal spray in sterile water three times daily for six months
From the text: Initiation of the test sought first to assure that the designed aerosol would be safely tolerated by the IC's respiratory mucosa.

With `O=C1O[C@H]([C@@H](O)CO)C(O)=C1O` [ascorbate] the “Adverse effects of spray on upper respiratory mucosa” value was “no adverse effects”.
